In patent publication US20200299671A1, “IMMOBILIZED MULTI-ENZYMATIC HALOGENATION SYSTEM” (priority 2019, published 2020):

Tested on: PltM
Test: Cell-based activity assay of PltM (Assay 3), wild-type PltM
Parameters: species or system E. coli BL21 (DE3)
Conditions: cells expressing wild-type PltM; 1 added to culture
Experimental: E. coli BL21 (DE3) cells were transformed with ppltM-pET28a, ppltMK87A-pET28a, ppltML111Y-pET28a, ppltMS404Y-pET28a, and ppltA-pET28a. The ppltA-pET28a plasmid overexpressing the halogenase PltA whose substrate is pyrrolyl-S-PltL (a peptidyl carrier protein-linked pyrrole) was used as a negative control. Five colonies from each transformant were cultured in 2×500 mL of LB medium (for ppltM-pET28a, ppltML111Y-pET28a, and ppltMS404Y-pET28a) and 1×500 mL of LB medium (for ppltMK87A-pET28a and ppltA-pET28a) with 50 μg/mL kanamycin at 37° C. and 200 rpm until attenuance of 0.2 at 600 nm. The cultures were then moved to 25° C. until attenuance of 0.5. Protein expression was induced by adding 0.2 mM IPTG to all […] flasks, and the cultures were incubated with shaking for 1 h. 12.5 μg/mL of compound 1 was added to 1×500 mL of LB medium containing ppltM-pET28a, ppltMK87A-pET28a, ppltML111Y-pET28a, ppltMS404Y-pET28a, and ppltA-pET28a. Compound 1 was not added to the three remaining flasks (negative controls). After additional incubation for 20 h, the cells were pelleted at 5,000 g for 10 min, and the supernatant was collected. The supernatant was extracted with EtOAc (3×330 mL), which was dried in vacuo. […]
The halogenation reaction products were analyzed by HPLC or LC-MS by injecting 10 μL of each sample. […]
For HPLC analysis, the molecules were observed by absorbance at λ=275 nm as described above. […]

Oc1cc(O)cc(O)c1 [Compound 1, phloroglucinol]
halogenation in fermentation culture: generated mono- and dichlorinated 1
